Patent US20090197842A1, “Therapeutic Agent for Neuropathic Pain” (JAPAN SCIENCE AND TECHNOLOGY CORPORATION, priority 2005, published 2009)

What was measured:
[1] = tested on: pain hypersensitivity model rats; experiment: Mechanical stimulation test (Dynamic Plantar Aesthesiometer), pain threshold of left plantar; format: in vivo; settings: for maximum pain threshold after the administration: max pressure 15.0 g, measured 30, 60, 90 min after administration; for effect of administration on pain threshold (in words): intraperitoneal, versus 0.5 w/v % CMC-Na control, Dunnett's test
Experimental: (§1) As experimental animals, pain hypersensitivity model rats obtained by conducting complete ligation on L5/L6 spinal nerves of 6-week-old male rats were used.
(§2) Mechanical stimulation tests were carried out using Dynamic Plantar Aesthesiometer (37400, Ugo Basile), and thermal stimulation tests were carried out using a plantar thermal stimulation tester (Plantar Test 7370, Ugo Basile). The pain threshold of the feet of each model animal was measured, and the animals were divided into groups using Preclinical Package Version 5.0 (SAS Institute Japan), such that the pain thresholds are uniform among the groups as measured prior to administration on each day of the experiment.
(§3) The test substance was prepared as follows. The base material was ground with an agate mortar and a pestle, and 0.5 w/v % carboxyrnethylcellulose sodium (CMC-Na) as a medium was gradually added thereto to form a uniform suspension. The concentration of the liquid to be administered was adjusted with a graduated cylinder or a volumetric flask, only before use.
(§4) The purpose of administering the test substance is to ascertain the direct effect on spinal cord. Since the test substance had been confirmed to pass through the brain barrier, a simple intraperitoneal administration was used. The test substance in a volume of 5 ml/kg was intraperitoneally administered using a syringe barrel and a needle.
(§5) Groups each including five pain hypersensitivity model male rats (355.8 to 457.9 g) were used. Before administration of ICI182.780, and at 30 minutes, 60 minutes and 90 minutes after administration of ICI182.780, the pain threshold of the left plantar of each rat was measured using a stimulating apparatus which had been set such that the maximum pressure would be 15.0 g and the maximum pressure would be reached in 20 seconds.
as §5, with “(290.3” for “(355.8”, “354.8” for “457.9”, “17β-estradiol,” for “ICI182.780,”
Groups each including five pain hypersensitivity model male rats (294.8 to 415.4 g) were used. Before administration of 17β-estradiol+ICI128.780, and at 30 minutes, 60 minutes and 90 minutes after administration of 17β-estradiol+ICI182.780, the pain threshold of the left plantar of each rat was measured using a stimulating apparatus which had been set such that the maximum pressure would be 15.0 g and the maximum pressure would be reached in 20 seconds.
as §5, with “(333.7” for “(355.8”, “408.3” for “457.9”, “fluocinolone acetonide,” for “ICI182.780,”
as §5, with “(261.4” for “(355.8”, “320.9” for “457.9”, “triamcinolone acetonide,” for “ICI182.780,”

[2] = tested on: neuropathic pain model mice; settings: J. Neurosci. 2004, 2005; cited from earlier work
[3] = tested on: pain hypersensitivity model rats; experiment: Thermal stimulation test (plantar thermal stimulation tester), pain threshold of left plantar; format: in vivo; settings: thermal stimulation intensity 35; for maximum pain threshold after the administration: measured 30, 60, 90 min after administration
Experimental: as §1, §2, §3, §4
(§6) Groups each including five pain hypersensitivity model male rats (282.0 to 452.4 g) were used. Before administration of 17β-estradiol+ICI128.780, and at 30 minutes, 60 minutes and 90 minutes after administration of 17β-estradiol+ICI182.780, the pain threshold of the left plantar of each rat was measured using a plantar thermal stimulating apparatus set to a thermal stimulation intensity of 45.
as §6, with “(320.0” for “(282.0”, “449.6” for “452.4”, “fluocinolone acetonide,” for “17β-estradiol+ICI128.780,”, “fluocinolone acetonide,” for “17β-estradiol+ICI182.780,”, “35.” for “45.”

SMILES	maximum pain threshold after the administration ([1]; 0.3 mg/kg intraperitoneal)	maximum pain threshold after the administration ([1]; 3 mg/kg intraperitoneal)	maximum pain threshold after the administration ([1]; 30 mg/kg intraperitoneal)	effect of administration on pain threshold (in words) [1]	analgesic action against neuropathic pain [2]	maximum pain threshold after the administration ([1]; 10 mg/kg intraperitoneal)	maximum pain threshold after the administration ([3]; 0.3 mg/kg intraperitoneal)	maximum pain threshold after the administration ([3]; 3 mg/kg intraperitoneal)	maximum pain threshold after the administration ([3]; 10 mg/kg intraperitoneal)	effect of administration on pain threshold (in words) ([3]; intraperitoneal, versus 0.5 w/v % CMC-Na control)
C[C@]12CC[C@@H]3c4ccc(O)cc4C[C@@H](CCCCCCCCC[S+]([O-])CCCC(F)(F)C(F)(F)F)[C@H]3[C@@H]1CC[C@@H]2O (stereo partly drawn) [ICI182.780, 7α-17β-[9-[(4,4,5,5,5-pentafluoropentyl)sulphinyl]nonyl]estra-1,3,5(10)-trien-3,17-diol]	6.7 g	8.7 g	10.6 g	significantly increased the pain threshold	–	–	–	–	–	–
CC#C[C@]1(O)CC[C@H]2[C@@H]3CCC4=CC(=O)CCC4=C3[C@@H](c3ccc(N(C)C)cc3)C[C@@]21C [mifepristone]	–	–	–	–	exhibited an analgesic action against neuropathic pain	–	–	–	–	–
CC1(C)O[C@@H]2C[C@H]3[C@@H]4CCC5=CC(=O)C=C[C@]5(C)[C@@]4(F)[C@@H](O)C[C@]3(C)[C@]2(C(=O)CO)O1 [triamcinolone acetonide]	6.6 g	8.1 g	8.8 g	–	–	–	–	–	–	–
CC1(C)O[C@@H]2C[C@H]3[C@@H]4C[C@H](F)C5=CC(=O)C=C[C@]5(C)[C@@]4(F)[C@@H](O)C[C@]3(C)[C@]2(C(=O)CO)O1 [fluocinolone acetonide]	7.5 g	11.3 g	–	significantly increased the pain threshold	–	11.6 g	8.0 s	9.9 s	9.9 s	significantly increased the pain threshold
C[C@]12CC[C@@H]3c4ccc(O)cc4CC[C@H]3[C@@H]1CC[C@@H]2O [17β-estradiol]	8.1 g	9.4 g	10.4 g	significantly increased the pain threshold	–	–	–	–	–	–
